≈ marks a conversion by molar mass, not a printed value. Like-named read-outs stand apart in the source and are kept apart here.
Tests used:
E. coli ATCC 25922 = conditions: per CLSI M100-S24 or provided by Microbion; cited from earlier work
Achromobacter spp. = assay: MIC against CF isolates (Example 7, Table 18); type: cell-based; conditions: strain AX4, A. xylosoxidans
S. aureus ATCC 29213 = conditions: per CLSI M100-S24 or provided by Microbion; cited from earlier work
[1] = tested on: Pseudomonas aeruginosa biofilms (MR14, AG14); assay: Activity against biofilms (Example 7); type: cell-based; conditions: MR14, MDR CF-isolate of P. aeruginosa; at 25 ng/mL
S. pneumoniae = S. pneumoniae MMX 6837 (ATCC 49619); cited from earlier work
[2] = tested on: beta-hemolytic streptococci; assay: MIC summary, beta-hemolytic streptococci (Example 5); type: cell-based, S. pyogenes, S. agalactiae; conditions: beta-hemolytic streptococci (Table 6); read-out: MIC values across isolates
Description: (§1) Test and Comparator Agents: The test agents were stored at room temperature until assayed. All test agents were suspended and diluted in 100% dimethylsulfoxide (DMSO), and were ultimately tested at a final concentration of 0.06-64 μg/mL. The stock solutions were allowed to stand for at least 1 hr prior to use to auto-sterilize.
(§2) TestMedia: Test media were prepared and stored in accordance with guidelines from CLSI (4, 6, 7). […] Neisseria gonorrhoeae were evaluated by agar dilution using agar consisting of GC medium base (BD; Lot No. 4274618) supplemented with 1% IsoVitaleX (BD; Lot No. 5246843).
(§3) Broth Microdilution MC Testing (Aerobic Bacteria and Yeast): The broth microdilution assay method employed for the susceptibility testing of aerobic bacteria (excluding N. gonorrhoeae which was evaluated by agar dilution) and yeast essentially followed the procedures described by CLSI (3, 4, 7, 8) and employed automated liquid handlers to conduct serial dilutions and liquid transfers. […]
(§4) Plates were stacked 4 high, covered with a lid on the top plate, placed into plastic bags, and incubated at 35° C. for approximately 24-48 hr for all yeast isolates and 16-24 hr for aerobic bacteria. […] MIC endpoints for the test agents and control compounds were read per CLSI criteria (3, 7).

K. pneumoniae = assay: Broth microdilution MIC (Example 5); type: cell-based, Klebsiella pneumoniae; conditions: Klebsiella pneumoniae
Description: (§5) Test and Comparator Agents: The test agents were stored at room temperature until assayed. […] The stock solutions were allowed to stand for at least 1 hr prior to use to auto-sterilize.
(§6) TestMedia: Test media were prepared and stored in accordance with guidelines from CLSI (4, 6, 7).
(§7) Broth Microdilution MC Testing (Aerobic Bacteria and Yeast): The broth microdilution assay method employed for the susceptibility testing of aerobic bacteria (excluding N. gonorrhoeae which was evaluated by agar dilution) and yeast essentially followed the procedures described by CLSI (3, 4, 7, 8) and employed automated liquid handlers to conduct serial dilutions and liquid transfers. […] These would become the ‘mother plates’ from which ‘daughter’ or test plates would be prepared. The drugs (300 μL at 40× the desired top concentration in the test plates) were dispensed into the appropriate well in Column 1 of the mother plates. The Biomek 2000 was used to make serial two-fold dilutions through Column 11 in the “mother plate”. The wells of Column 12 contained no drug and ultimately served as the organism growth control wells.
(§8) The daughter plates were prepared using the Biomek FX which transferred 5 μL of drug solution from each well of a mother plate to the corresponding well of the correct daughter plate in a single step.
(§9) A standardized inoculum of each organism was prepared per CLSI methods (3, 7). Isolated colonies of each test isolate were picked from the primary plate and a suspension was prepared to equal a 0.5 McFarland turbidity standard. Standardized suspensions were then diluted […] (1:100 for yeast, 1:20 for bacteria). After dilution, the inoculum suspensions were then transferred to compartments of sterile reservoirs divided by length (Beckman Coulter), and the Biomek 2000 was used to inoculate all plates. Daughter plates were placed on the Biomek 2000 in reverse orientation so that plates were inoculated from low to high drug concentration.
(§10) The Biomek 2000 delivered 10 μL of standardized inoculum into each well of the appropriate daughter plate for an additional 1:20 dilution.
as §4, with “bacteria. Plates were viewed from the bottom using a plate viewer.” for “bacteria.”

Enterobacteriaceae = assay: MIC summary across Enterobacteriaceae (Example 5); type: cell-based, E. coli, K. pneumoniae, Enterobacter cloacae; conditions: all evaluated Enterobacteriaceae isolates (Table 3)
Description: as §1, §2, §3, §4

E. cloacae = assay: Broth microdilution MIC (Example 5); type: cell-based, Enterobacter cloacae; conditions: Enterobacter cloacae, ATCCBAA2468
Description: as §5, §6
Broth Microdilution MC Testing (Aerobic Bacteria and Yeast): The broth microdilution assay method employed for the susceptibility testing of aerobic bacteria (excluding N. gonorrhoeae which was evaluated by agar dilution) and yeast essentially followed the procedures described by CLSI (3, 4, 7, 8) and employed automated liquid handlers to conduct serial dilutions and liquid transfers. […] These would become the ‘mother plates’ from which ‘daughter’ or test plates would be prepared. The drugs (300 μL at 40× the desired top concentration in the test plates) were dispensed into the appropriate well in Column 1 of the mother plates. The Biomek 2000 was used to make serial two-fold dilutions through Column 11 in the “mother plate”. […]
as §4

E. coli = assay: Broth microdilution MIC (Example 5); type: cell-based, Escherichia coli; conditions: Escherichia coli
Description: as §5, §6, §7, §8, §9, §10
as §4, with “bacteria. Plates were viewed from the bottom using a plate viewer.” for “bacteria.”

S. pyogenes = assay: Broth microdilution MIC (Example 5); type: cell-based; conditions: Streptococcus pyogenes
In short: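 Colonies were suspended to a 0.5 McFarland standard, diluted in test media, and dispensed into plates holding two-fold serial drug dilutions.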

For `NCC[C@H](O)C(=O)N[C@@H]1C[C@H](N)[C@@H](O[C@H]2O[C@H](CN)[C@@H](O)[C@H](O)[C@H]2O)[C@H](O)[C@H]1O[C@H]1O[C@H](CO)[C@@H](O)[C@H](N)[C@H]1O` [Amikacin], the “MIC, acceptable range” value (E. coli ATCC 25922) is given as 0.5 to 4 mg/L, the “MIC, expected results” value (E. coli ATCC 25922) is given as 1 to 2 mg/L and the MIC (Achromobacter spp.) is given as greater than 64 mg/L. The “MIC, acceptable range” value (S. aureus ATCC 29213) was 1 to 4 mg/L and the “MIC, expected results” value (S. aureus ATCC 29213) was 2 mg/L (≈ 3.42 µM).

For `CC(S)C(C)S.[Bi]` (stereo not drawn) [MB-6, bismuth-2,3-butanedithiol], the “Reduction in biofilm cell viability” value [1] is listed as 2 logs, the “MIC, acceptable range” value (S. aureus ATCC 29213) is listed as 0.12 to 0.5 mg/L and the “MIC, expected results” value (S. aureus ATCC 29213) is listed as 0.25 mg/L.

In the case of `C[C@@H](O)[C@H]1C(=O)N2C(C(=O)O)=C(S[C@@H]3CN[C@H](C(=O)N(C)C)C3)[C@H](C)[C@H]12` [Meropenem], the “CLSI QC range of MIC” value (S. pneumoniae) is given as “(0.06-0.25) μg/mL”.

`OCC(S)CS.[Bi]` (stereo not drawn) [MB-2B, bismuth-2,3-dimercaptopropanol] gave an MIC [2] of 0.25 to 8 mg/L, an MIC (K. pneumoniae; K. pneumoniae MMX 4622, KPC-2) of 16 mg/L and an MIC (K. pneumoniae; K. pneumoniae MMX 4623, KPC-2) of 32 mg/L. It also gave an MIC (K. pneumoniae; K. pneumoniae MMX 4653, KPC-3) of 16 mg/L, an MIC (K. pneumoniae; K. pneumoniae MMX 4683, KPC-2) of 8 mg/L and an MIC (K. pneumoniae; K. pneumoniae MMX 4684, ESBL, read-out: MIC) of 32 mg/L. For the same compound, the MIC (K. pneumoniae; K. pneumoniae MMX 4685, ESBL, read-out: MIC) was 8 mg/L, the MIC (K. pneumoniae; K. pneumoniae MMX 4694, KPC-3) was 8 mg/L and the MIC (K. pneumoniae; K. pneumoniae MMX 5979, NDM-1) was 16 mg/L. It also gave an MIC (Enterobacteriaceae) of 2 to 32 mg/L, an MIC (E. cloacae) of 32 mg/L and an MIC (E. coli; ATCC25922, E. coli MMX 102 (ATCC 25922), QC, read-out: MIC) of 2 mg/L. For the same compound, the MIC (E. coli; ATCCBAA2469, E. coli MMX 5980 (ATCC BAA-2469), NDM-1) was 2 mg/L, the MIC (E. coli; E. coli MMX 8423, ESBL, LevR CAZR GmR, read-out: MIC) was 2 mg/L and the MIC (E. coli; E. coli MMX 8424, ESBL, CAZR, read-out: MIC) was 4 mg/L. The MIC (E. coli; E. coli MMX 8425, ESBL, LevR CAZR GmR, read-out: MIC) was 2 mg/L, the MIC (S. pyogenes; S. pyogenes MMX 3068, EryR) was 2 mg/L and the MIC (S. pyogenes; S. pyogenes MMX 3820, ERYR CLIR) was 1 mg/L. For the same compound, the MIC (S. pyogenes; S. pyogenes MMX 3919, ERYR) was 0.25 mg/L, the MIC (S. pyogenes; S. pyogenes MMX 3929, ERYR CCR) was 1 mg/L and the MIC (S. pyogenes; S. pyogenes MMX 5091, ERYR CCR) was 1 mg/L.

Source: US20240285571A1, “METHODS OF TREATING BONE INFECTIONS” (MICROBION CORPORATION, priority 2020, published 2024)
